Assay [1] has as its target T1, Fatty-acid amide hydrolase 1 (Rattus norvegicus, UniProt P97612).
T1 sequence (P97612 whole entry): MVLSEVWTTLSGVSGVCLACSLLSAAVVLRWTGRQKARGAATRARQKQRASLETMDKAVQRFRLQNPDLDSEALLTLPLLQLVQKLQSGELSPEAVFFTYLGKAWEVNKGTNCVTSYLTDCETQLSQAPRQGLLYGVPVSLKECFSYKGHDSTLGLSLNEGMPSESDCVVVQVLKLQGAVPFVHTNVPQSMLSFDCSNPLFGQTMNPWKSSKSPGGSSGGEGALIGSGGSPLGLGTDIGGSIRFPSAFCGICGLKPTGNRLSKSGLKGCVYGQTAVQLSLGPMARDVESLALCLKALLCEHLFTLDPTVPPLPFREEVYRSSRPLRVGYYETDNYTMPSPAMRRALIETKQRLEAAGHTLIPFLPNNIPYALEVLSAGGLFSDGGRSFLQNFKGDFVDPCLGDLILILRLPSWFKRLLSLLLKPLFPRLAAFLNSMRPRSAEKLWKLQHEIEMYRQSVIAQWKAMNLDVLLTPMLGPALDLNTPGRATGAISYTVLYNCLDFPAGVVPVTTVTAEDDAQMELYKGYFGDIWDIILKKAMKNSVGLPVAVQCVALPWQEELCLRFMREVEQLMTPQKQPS
Briefly: Inhibition of rat recombinant FAAH expressed in Escherichia coli.

Assay [2] deals with T2, Liver carboxylesterase 1 (Homo sapiens, UniProt P23141).
T2 sequence (P23141 whole entry): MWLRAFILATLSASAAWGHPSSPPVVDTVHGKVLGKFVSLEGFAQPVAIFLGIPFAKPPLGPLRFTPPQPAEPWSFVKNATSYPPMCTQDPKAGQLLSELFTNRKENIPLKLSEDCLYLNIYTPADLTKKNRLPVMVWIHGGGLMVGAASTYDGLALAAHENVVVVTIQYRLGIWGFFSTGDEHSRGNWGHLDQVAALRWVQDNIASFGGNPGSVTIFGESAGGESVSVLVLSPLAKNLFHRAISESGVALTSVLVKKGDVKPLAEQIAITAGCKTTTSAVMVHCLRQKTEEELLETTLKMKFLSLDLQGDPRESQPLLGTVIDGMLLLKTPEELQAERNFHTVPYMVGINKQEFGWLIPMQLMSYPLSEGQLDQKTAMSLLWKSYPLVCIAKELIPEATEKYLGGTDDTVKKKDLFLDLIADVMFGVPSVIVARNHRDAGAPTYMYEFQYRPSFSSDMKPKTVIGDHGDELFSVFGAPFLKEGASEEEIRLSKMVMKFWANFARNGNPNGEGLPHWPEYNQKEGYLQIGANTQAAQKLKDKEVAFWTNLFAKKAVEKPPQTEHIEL

Assay [3] concerns the target T3, Neutral cholesterol ester hydrolase 1 (Homo sapiens, UniProt Q6PIU2).
T3 sequence (Q6PIU2 whole entry): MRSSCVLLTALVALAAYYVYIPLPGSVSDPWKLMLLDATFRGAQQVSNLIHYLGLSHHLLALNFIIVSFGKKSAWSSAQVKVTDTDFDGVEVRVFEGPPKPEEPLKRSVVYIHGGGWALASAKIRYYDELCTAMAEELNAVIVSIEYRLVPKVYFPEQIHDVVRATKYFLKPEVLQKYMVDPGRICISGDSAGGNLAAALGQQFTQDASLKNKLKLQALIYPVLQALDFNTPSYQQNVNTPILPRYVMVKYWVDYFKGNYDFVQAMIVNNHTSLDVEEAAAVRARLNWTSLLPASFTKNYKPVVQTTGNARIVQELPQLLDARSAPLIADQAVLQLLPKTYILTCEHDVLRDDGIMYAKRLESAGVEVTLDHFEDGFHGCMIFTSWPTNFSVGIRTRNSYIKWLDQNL
Briefly: Inhibition of KIAA1363.

The nature of assay [4]: Selectivity for rat recombinant FAAH over KIAA1363.
Assay [5] can be described thus: Selectivity for rat recombinant FAAH over TGH.

In general, Ki refers to a dissociation constant, usually derived from enzyme kinetics or from competition with a known ligand. What is called IC50 is the midpoint of a concentration-inhibition curve.

Where only a bound is given, the exact number is not on record here.

As for `COC(=O)c1cccc(-c2cnc(CCCc3ccc(-c4ccccc4)cc3)o2)n1`, the Ki in assay [1] was determined as 7000 nM.

As for `O=C(CCc1ccc(Oc2ccccc2)cc1)c1ncc(-c2ccccn2)o1`, the values for the IC50 in assay [1], in assay [2] and in assay [3] were 2 nM, 200 nM and over 100000 nM, respectively.

Consider `O=C(O)c1cccc(-c2cnc(CCCc3ccc(-c4ccccc4)cc3)o2)n1`, for which, in assay [1], the Ki came out at 10000 nM.

For the molecule `COC(=O)c1cnc(C(=O)CCc2ccc(Oc3ccccc3)cc2)o1`, the Ki in assay [1] amounted to 1.7 nM.

Take `O=C(CCc1ccc(-c2ccccc2)cc1)c1ncc(C(F)(F)F)o1`: the inhibition constant Ki in assay [1] was found to be 0.7 nM.

In the case of `NC(=O)c1cnc(C(=O)CCc2ccc(-c3ccccc3)cc2)o1`, in assay [1], the inhibition constant (Ki) is 3.5 nM.

As to `CN(C)C(=O)c1cnc(C(=O)CCc2ccc(COc3ccccc3)cc2)o1`, in assay [1], the inhibition constant Ki turned out to be 6.7 nM.

Consider `O=C(O)c1cnc(C(=O)CCc2ccc(COc3ccccc3)cc2)o1`, for which the results for the IC50 in assay [1], in assay [2] and in assay [3] were 50 nM, 37000 nM and over 100000 nM, respectively. Moreover, in assay [1], the Ki was 22 nM. For the same molecule, the results for the Ratio IC50 in assay [4] and in assay [5] were over 2000 and 740, respectively.

`O=C(O)c1cccc(-c2cnc(C(=O)CCc3ccc(COc4ccccc4)cc3)o2)n1`: the IC50 in assay [1] is 40 nM; in assay [2], 26000 nM; in assay [3], over 100000 nM. Besides, the Ratio IC50 in assay [4] is over 2500; in assay [5], 650.

With `O=C(O)c1cccc(-c2cnc(C(=O)CCc3ccc(OC4CCNCC4)cc3)o2)n1`, in assay [1], the Ki is 11000 nM.

For the molecule `O=C(CCc1ccc(-c2ccc(CN3CCCCC3)cc2)cc1)c1ncco1`, the Ki in assay [1] worked out at 25 nM.

For the molecule `COC(=O)c1cnc(C(=O)CCc2ccc(-c3ccccc3)cc2)o1`, the Ki in assay [1] amounted to 1.5 nM.

As to `O=C(CCc1ccc(-c2ccccc2)cc1)c1ncc(-c2ccccn2)o1`, the IC50 was 1200 nM in assay [2] and over 100000 nM in assay [3].

`CNC(=O)c1cnc(C(=O)CCc2ccc(Oc3ccccc3)cc2)o1`: in assay [1], the Ki came out at 11 nM.

As to `COC(=O)c1cc(-c2cnc(C(=O)CCc3ccc(-c4ccccc4)cc3)o2)ccn1`, in assay [1], the Ki amounted to 1.5 nM.

`O=C(CCc1ccc(COc2ccccc2)cc1)c1ncc(-c2ccccn2)o1`: the IC50 in assay [1] is 2 nM; in assay [2], 2000 nM; in assay [3], over 100000 nM. The Ratio IC50 in assay [4] was over 50000; in assay [5] it was 1000.

As for `NC(=O)c1ccc(-c2cnc(C(O)CCc3ccc(-c4ccccc4)cc3)o2)nc1` (stereo not drawn), in assay [1], the Ki was over 1000 nM.

`O=C(CCCCCCc1ccccc1)c1ncco1`: the IC50 in assay [1] is 2500 nM.

Take `NC(=O)c1cccc(-c2cnc(CCCc3ccc(-c4ccccc4)cc3)o2)n1`: in assay [1], the inhibition constant Ki came to 4000 nM.

`NC(=O)c1ccc(-c2cnc(CCCc3ccc(-c4ccccc4)cc3)o2)nc1`: the Ki in assay [1] came to 30000 nM.

Regarding `O=C(CCc1ccc(Oc2ccccc2)cc1)c1ncc(I)o1`, the Ki in assay [1] was 10 nM.

Take `NC(=O)c1ccc(-c2cnc(C(=O)CCc3ccc(-c4ccccc4)cc3)o2)nc1`: the Ki in assay [1] amounted to 1.3 nM.

`COC(=O)c1cccc(-c2cnc(C(=O)CCc3ccc(OC4CCN(C(=O)OC(C)(C)C)CC4)cc3)o2)n1`: the Ki in assay [1] is 32 nM.

Take `CS(=O)(=O)c1cnc(C(=O)CCc2ccc(-c3ccccc3)cc2)o1`: the Ki in assay [1] was 1.2 nM.

Consider `CN(C)C(=O)c1cnc(C(=O)CCc2ccc(Oc3ccccc3)cc2)o1`, for which the Ki in assay [1] was determined as 5.4 nM.

With `COC(=O)c1ccc(-c2cnc(CCCc3ccc(-c4ccccc4)cc3)o2)nc1`, the inhibitory constant (Ki) in assay [1] came out at 50000 nM.

Take `COC(=O)c1cccc(-c2cnc(C(O)CCc3ccc(-c4ccccc4)cc3)o2)n1` (stereo not drawn): the inhibition constant Ki in assay [1] was found to be 9000 nM.

`COC(=O)c1ccc(-c2cnc(C(O)CCc3ccc(-c4ccccc4)cc3)o2)nc1` (stereo not drawn): the inhibition constant (Ki) in assay [1] turned out to be 1100 nM.

For `CSc1cnc(C(=O)CCc2ccc(-c3ccccc3)cc2)o1`, the inhibition constant Ki in assay [1] was 3 nM.

As for `O=C(O)c1cnc(C(=O)CCCCCCc2ccccc2)o1`, the results for the IC50 in assay [1] and in assay [2] were 2 nM and 2000 nM, respectively. In addition, the Ratio IC50 in assay [4] is over 50000; in assay [5], 1000.

As to `O=C(CCCCCCc1ccccc1)c1ncc(-c2cccc(-c3nnn[nH]3)n2)o1`, the values for the IC50 in assay [1], in assay [2] and in assay [3] were 500 nM, over 100000 nM and over 100000 nM, respectively. The Ratio IC50 in assay [4] and in assay [5] was over 200 each time.

For `N#Cc1cccc(-c2cnc(C(=O)CCc3ccc(-c4ccccc4)cc3)o2)n1`, in assay [1], the Ki turned out to be 2.9 nM.

Regarding `O=C(O)c1cccc(-c2cnc(C(=O)CCc3ccc(-c4ccccc4)cc3)o2)n1`, the half-inhibitory concentration (IC50) was 6 nM in assay [1], over 100000 nM in assay [2] and over 100000 nM in assay [3]. Further, the Ratio IC50 in assay [4] and in assay [5] was over 17000 each time.

As to `COC(=O)c1cnc(C(=O)CCc2ccc(COc3ccccc3)cc2)o1`, the Ki in assay [1] worked out at 1.6 nM.

On to `CN(C)C(=O)c1cnc(C(=O)CCc2ccc(-c3ccccc3)cc2)o1`, for which the Ki in assay [1] worked out at 3 nM.

Take `O=C(O)c1cnc(C(=O)CCc2ccc(Oc3ccccc3)cc2)o1`: the figures for the IC50 in assay [1], in assay [2] and in assay [3] were 80 nM, 2400 nM and over 100000 nM, respectively. Further, in assay [1], the Ki was found to be 41 nM. Further, the Ratio IC50 was over 1250 in assay [4] and 30 in assay [5].

In the case of `O=C(O)c1cnc(C(=O)CCc2ccc(-c3ccccc3)cc2)o1`, the IC50 in assay [1] was 20 nM; in assay [2], 17000 nM; in assay [3], over 100000 nM. For the same molecule, the Ki in assay [1] worked out at 10 nM. For the same molecule, the Ratio IC50 is over 5000 in assay [4] and 850 in assay [5].

Take `O=C(CCc1ccc(-c2ccccc2)cc1)c1ncc(-c2cccc(-c3nnn[nH]3)n2)o1`: the IC50 is 100 nM in assay [1], 7000 nM in assay [2] and over 100000 nM in assay [3]. In assay [1], the Ki was 25 nM. The Ratio IC50 is over 1000 in assay [4] and 70 in assay [5].

For `O=C(O)c1ccc(-c2cnc(CCCc3ccc(-c4ccccc4)cc3)o2)nc1`, the Ki in assay [1] amounted to 20000 nM.

`CC(C)(C)OC(=O)N1CCC(Oc2ccc(CCC(=O)c3ncc(-c4cccc(C(=O)O)n4)o3)cc2)CC1`: the Ki in assay [1] was determined as 120 nM.

In the case of `NC(=O)c1cccc(-c2cnc(C(O)CCc3ccc(-c4ccccc4)cc3)o2)n1` (stereo not drawn), in assay [1], the Ki was found to be 20000 nM.

Turning to `CNC(=O)c1cnc(C(=O)CCc2ccc(COc3ccccc3)cc2)o1`, the Ki in assay [1] stood at 3.6 nM.

Regarding `O=C(O)c1ccc(-c2cnc(C(O)CCc3ccc(-c4ccccc4)cc3)o2)nc1` (stereo not drawn), the Ki in assay [1] was determined as 10000 nM.

As for `O=C(O)c1cccc(-c2cnc(C(=O)CCc3ccc(-c4ccc(CN5CCCC5)cc4)cc3)o2)n1`, the Ki in assay [1] was 130 nM.

As to `COC(=O)c1cccc(-c2cnc(C(=O)CCc3ccc(OC4CCNCC4)cc3)o2)n1`, the inhibition constant Ki in assay [1] is 4500 nM.

Regarding `O=C(CCc1ccc(-c2ccccc2)cc1)c1ncc(C(=O)C(F)(F)F)o1`, in assay [1], the Ki is 8 nM.

`CN1CCN(Cc2ccc(-c3ccc(CCC(=O)c4ncc(-c5cccc(C(=O)O)n5)o4)cc3)cc2)CC1`: the Ki in assay [1] turned out to be 1200 nM.

`O=C(O)c1cccc(-c2cnc(C(O)CCc3ccc(-c4ccccc4)cc3)o2)n1` (stereo not drawn): the Ki in assay [1] turned out to be 1100 nM.

For `O=C(CCc1ccc(-c2ccccc2)cc1)c1ncc(I)o1`, the inhibition constant (Ki) in assay [1] is 4 nM.

With `NC(=O)c1cnc(C(=O)CCc2ccc(Oc3ccccc3)cc2)o1`, the Ki in assay [1] is 6.6 nM.

Turning to `N#Cc1cccc(-c2cnc(C(=O)CCc3ccc(COc4ccccc4)cc3)o2)n1`, in assay [1], the Ki stood at 0.56 nM.

With `O=C(CCc1ccc(COc2ccccc2)cc1)c1ncc(I)o1`, the Ki in assay [1] stood at 4 nM.

On to `O=C(O)c1cccc(-c2cnc(C(=O)CCCCCCc3ccccc3)o2)n1`, for which the half-inhibitory concentration (IC50) in assay [1] was determined as 100 nM. Besides, the Ratio IC50 in assay [4] and in assay [5] was over 1000 in each case.

For the molecule `NC(=O)c1cnc(C(=O)CCc2ccc(COc3ccccc3)cc2)o1`, in assay [1], the Ki was determined as 4.5 nM.

These data come from ChEMBL document CHEMBL1142267, “Optimization of alpha-ketooxazole inhibitors of fatty acid amide hydrolase” (J Med Chem, 2008).
